The values below come from ChEMBL document CHEMBL1121945, “Nitrogen bridgehead compounds. 18. New antiallergic 4H-pyrido[1,2-a]pyrimidin-4-ones. 1” (J Med Chem, 1982).

Molecules are shown by their SMILES. Where only a bound is given, the exact number is not on record here.

For assay [1], the system named is Rattus norvegicus. In words: Inhibition of rat passive cutaneous anaphylaxis (PCA) reaction after intravenous administration. Conditions: for ED50: Rattus norvegicus, iv, read-out: ID50 (the source's name). The format is functional.
The species entered for assay [2] is Rattus norvegicus. In words: The compound was tested for its ability to inhibit histamine release from sensitized rat mast cells in vitro. The format is functional, cell-based.
The subject of assay [3] is Rattus norvegicus. In words: Inhibition of rat passive cutaneous anaphylaxis (PCA) reaction was determined after oral administration. The format is functional. The following applies: read-out: ID50 (the source's name).
For assay [4], the species on record is Rattus norvegicus. In words: Inhibition of histamine release from sensitized rat mast cells in vitro. It counts as functional. The following applies: Rattus norvegicus, Mast cell; read-out: EC50.

In the assay on Rattus norvegicus [1], `CC1CCC(=NNc2ccccc2C(=O)O)c2ncc(C(=O)O)c(=O)n21` (stereo in doubt; 56) gave an ID50 of 0.48 µM/kg. Moreover, in the assay listed under Rattus norvegicus [2], the EC50 came to 1300 uM l-1.

As for `CC1CC/C(=N\Nc2ccc(Cl)cc2)c2ncc(C(=O)O)c(=O)n21` (stereo unspecified), the ED50 with Rattus norvegicus [1] is 0.5 µmol/kg; in the assay with Rattus norvegicus [3] it was above 100 µmol/kg. Also, the EC50 in the assay filed under Rattus norvegicus [2] (Mast cell) worked out at 16.6 µM.

`CC1CC/C(=N\Nc2cccc(C(=O)O)c2)c2ncc(C(=O)O)c(=O)n21` (stereo unspecified): the ED50 in the assay with Rattus norvegicus [1] is 26.6 µmol/kg; with Rattus norvegicus [3] (Rattus norvegicus, po), above 100 µmol/kg. For the same compound, in the assay filed under Rattus norvegicus [2] (Mast cell), the EC50 came out at 10 µM.

For the compound `CC1CC/C(=N\Nc2cccc(Br)c2)c2ncc(C(=O)O)c(=O)n21` (stereo unspecified), the ED50 in the assay on Rattus norvegicus [1] is 0.4 µmol/kg; in the assay with Rattus norvegicus [3] (Rattus norvegicus, po), above 320 µmol/kg. Further, the EC50 in the assay listed under Rattus norvegicus [4] was 6.7 µM.
